According to US20110028509A1, “Sulfonamides” (MERCK SERONO SA, priority 2008, published 2011):

Key:
Format in all cases: cell-based
[1] = biological target: T1, CXCR3 (Homo sapiens, UniProt P49682); experiment: CXCR3 Ca2+ mobilization (FLIPR), stable hCXCR3-CHO cell line, I-TAC stimulated; parameters: host or cells: CHO cells stably expressing hCXCR3; conditions: hCXCR3-CHO cells, I-TAC 100 nM stimulated Ca2+ response; read-out: Ca-ITAC
T1 sequence (P49682 1-368): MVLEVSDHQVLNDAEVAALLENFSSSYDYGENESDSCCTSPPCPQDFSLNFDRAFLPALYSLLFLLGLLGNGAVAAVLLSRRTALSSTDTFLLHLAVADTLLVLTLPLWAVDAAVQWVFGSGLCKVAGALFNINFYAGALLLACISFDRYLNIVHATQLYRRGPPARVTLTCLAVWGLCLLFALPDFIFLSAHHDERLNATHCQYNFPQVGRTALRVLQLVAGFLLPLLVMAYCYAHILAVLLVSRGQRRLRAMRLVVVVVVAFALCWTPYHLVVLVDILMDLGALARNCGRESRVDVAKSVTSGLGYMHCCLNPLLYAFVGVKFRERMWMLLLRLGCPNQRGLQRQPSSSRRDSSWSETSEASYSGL
Outline: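 Ca2+ mobilization triggered by I-TAC (100 nM) measured by FLIPR in a stable hCXCR3-CHO line. Dye-loaded (60 min) cells preincubated with compounds 20 minutes at room temperature; antagonism given relative to the compound-free I-TAC signal set at 100%.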

[2] = biological target: T1, CXCR3; experiment: Chemotaxis assay IP10, L1.2 recombinant cells expressing hCXCR3; conditions: L1.2 hCXCR3 cells, IP10 around 0.3 nM, 4 hours
Description: (§1) Human CXCR3 cDNA was amplified by PCR from a human cells cDNA library (Clontech) and subcloned into pcDNA3.1 (Invitrogen). Murine pre-B L1.2 cells were transfected with hCXCR3-pcDNA3.1 and were grown at 37° C., 5% CO2 in RPMI 1640 medium (Invitrogen, USA) supplemented with 5% heat inactivated fetal calf serum (Cancerra, Australia), 2 mM glutamine (Invitrogen), 50 units ml−1 penicillin, 50 μml−1 streptomycin. Stable transfectant clonal populations were selected using 800 μg/ml geneticin.
L1.2 recombinant cells expressing the receptor hCXCR3 were maintained in culture in RPMI 1640 (invitrogen), 5% Foetal Bovine Serum (invitrogen), 2 mM glutamine(invitrogen), 50 u/ml penicillin/streptomycin (invitrogen), at 37° C.-5% CO2—in an H2O saturated incubator. In order to stimulate the expression of the receptor, cells were incubated overnight with 5 mM butyric acid (Sigma)
This mix of cells/compounds was then incubated at 37° C.-5% CO2—in an H2O saturated incubator during 30 minutes. Cells were then dispensed as a drop on each corresponding wells of the chemotaxis system. Cell migration was then induced at 37° C.-5% CO2—in an H2O incubator during 4 hours. Filters were then removed and cells that had migrated were transferred in a black plate (Costar). The plates were stored overnight at −80° C. Cell migration ratio was calculated using the cyquant dye (Molecular Probes-C7026).

[3] = biological target: T1, CXCR3; experiment: Chemotaxis assay ITAC (CXCL11), L1.2-CXCR3 cells; parameters: expressed in transfected cells; conditions: 1 nM CXCL11 (I-TAC), 4 hours
Description: as §1
L1.2-CXCR3 cells were grown for 24 hours at 0.5×10^6 cells/ml in chemotaxis medium containing 5 mM butyric acid (Sigma). Compounds were on one hand mixed with 1 nM of CXCL11 (I-TAC) in phenol-red free RPMI 1640 (invitrogen) supplemented with 5% fetal bovine serum in presence of 1% DMSO. The CXCL11/compounds mixture was then added to lower chambers of chemotaxis 96 well microplates (neuroprobe), and framed filters ([…] pore size) were put on top of the lower chambers. Compounds were on the other hand mixed with L1.2 CXCR3 cells and incubated in chemotaxis medium at 1.5×10^6 cells/ml in presence of 1% DMSO at 37° C., 5% CO2 for 30 minutes. Cells/compounds mixture was then added on top of the frame filters and migration was performed at 37° C., 5% CO2 for 4 hours. The number of migrated cells in the bottom chamber was determined using the CyQuant GR dye (Molecular Probe), according to the manufacturer.

| Structure (SMILES) | IC50 [1] [nM] | IC50 [2] [µM] | IC50 [3] [nM] |
| --- | --- | --- | --- |
| N#Cc1ccc(S(=O)(=O)N(Cc2ccc(-c3nnn[nH]3)cc2)Cc2ccccn2)cc1 [Example 47, 4-cyano-N-(pyridin-2-ylmethyl)-N-[4-(2H-tetrazol-5-yl)benzyl]benzenesulfonamide] | 1160 | 0.233 | – |
| O=C(NS(=O)(=O)Cc1cccc([N+](=O)[O-])c1)c1ccc(CN(Cc2ccccn2)S(=O)(=O)c2ccc(Cl)cc2)cc1 [Example 50, N-(3-nitrophenylmethanesulfonyl)-4-{[[(4-chlorophenyl)sulfonyl](pyridin-2-yl-methyl)amino]methyl}benzamide] | 175 | 0.207 | – |
| O=C(NS(=O)(=O)c1cccc(F)c1)c1ccc(CN(Cc2ccccn2)S(=O)(=O)c2ccc(Cl)cc2)cc1 [Example 51, N-(3-fluorobenzenesulfonyl)-4-{[[(4-chlorophenyl)sulfonyl](pyridin-2-yl-methyl)amino]methyl}benzamide] | 131 | 0.339 | – |
| CS(=O)(=O)CCCS(=O)(=O)NC(=O)c1ccc(CN(Cc2ccccn2)S(=O)(=O)c2ccc(Cl)cc2)cc1 [Example 53, N-(1-methylsulfonyl-3-propylsulfonyl)-4-{[[(4-chlorophenyl)sulfonyl](pyridin-2-yl-methyl)amino]methyl}benzamide] | 1700 | 1.32 | – |
| COCCCS(=O)(=O)NC(=O)c1ccc(CN(Cc2ccccn2)S(=O)(=O)c2ccc(Cl)cc2)cc1 [Example 54, N-(3-methoxy-propane-1-sulfonyl)-4-{[[(4-chlorophenyl)sulfonyl](pyridin-2-yl-methyl)amino]methyl}benzamide] | 5600 | 3.83 | – |
| O=S(=O)(c1ccc(Cl)cc1)N(Cc1ccc(-c2nnn[nH]2)c(F)c1)Cc1ccccn1 [Example 56, 4-chloro-N-[3-fluoro-4-(1H-tetrazol-5-yl)benzyl]-N-(pyridin-2 ylmethyl)benzene sulfonamide] | 5300 | 1.16 | – |
| O=S(=O)(c1ccc(Cl)cc1)N(Cc1ccccn1)Cc1ccc(-c2nnn[nH]2)cc1F [Example 57, 4-chloro-N-[2-fluoro-4-(1H-tetrazol-5-yl)benzyl]-N-(pyridin-2 ylmethyl)benzene sulfonamide] | 5000 | 0.44 | 1780 |
| O=S(=O)(c1ccc(Cl)cc1)N(Cc1ccc(-c2nnn[nH]2)cc1)Cc1ccc(F)cc1F [Example 60, 4-chloro-N-(2,4-difluorobenzyl)-N-[4-(2H-tetrazol-5-yl)benzyl]benzenesulfonamide] | 1450 | 0.681 | – |
| O=S(=O)(c1ccc(Cl)cc1)N(Cc1ccc(-c2nnn[nH]2)cc1)Cc1c(F)cccc1F [Example 62, 4-chloro-N-(2,6-difluorobenzyl)-N-[4-(2H-tetrazol-5-yl)benzyl]benzene sulfonamide] | 44 | 0.183 | 212 |
| O=S(=O)(c1ccc(Cl)cc1)N(Cc1ccc(-c2nnn[nH]2)cc1)Cc1ccccc1Cl [Example 63, 4-chloro-N-(2-chlorobenzyl)-N-[4-(2H-tetrazol-5-yl)benzyl]benzenesulfonamide] | 415 | 0.548 | – |
| O=C(O)c1ccc(CN(Cc2ccccn2)S(=O)(=O)c2ccc(Cl)cc2)cc1F [Example 64, 4-{[(4-Chloro-benzenesulfonyl)-pyridin-2-ylmethyl-amino]-methyl}-2-fluoro-benzoic acid] | 3040 | 1.13 | 3150 |
| O=C(O)c1ccc(CN(Cc2ccccc2F)S(=O)(=O)c2ccc(Cl)cc2)cc1F [Example 65, 4-{[(4-Chloro-benzenesulfonyl)-(2-fluoro-benzyl)-amino]-methyl}-2-fluorobenzoic acid] | 1010 | 0.513 | 2300 |
| CC(C)(C)c1nc(CN(Cc2ccc(-c3nnn[nH]3)cc2)S(=O)(=O)c2ccc(Cl)cc2)no1 [Example 69, 4-chloro-N-(5-tert-butyl-1,2,4-oxadiazol-3-ylmethyl)-N-[4-(2H-tetrazol-5yl)benzyl]benzene sulfonamide] | 56 | 0.254 | 560 |
| O=S(=O)(c1ccc(Cl)cc1)N(Cc1ccc(-c2nnn[nH]2)cc1)Cc1cc2ccccc2cn1 [Example 76, 4-chloro-N-(isoquinolin-3-ylmethyl)-N-[4-(2H-tetrazol-5yl)benzyl]benzene sulfonamide] | 300 | 0.911 | – |
| O=S(=O)(c1ccc(Cl)cc1F)N(Cc1ccc(-c2nnn[nH]2)cc1)Cc1ccccn1 [Example 77] | 500 | 0.409 | 409 |
| CCOc1ccc(S(=O)(=O)N(Cc2ccc(-c3nnn[nH]3)c(F)c2)Cc2ccccn2)cc1 [Example 80] | 55 | 0.158 | 909 |
| N#Cc1ccc(S(=O)(=O)N(Cc2ccc(-c3nnn[nH]3)c(F)c2)Cc2ccccc2F)cc1 [Example 81, 4-cyano-N-(2-fluorobenzyl)-N-[3-fluoro-4-(2H-tetrazol-5-yl)benzyl]benzene sulfonamide] | 79 | 0.193 | 565 |
| N#Cc1ccc(S(=O)(=O)N(Cc2ccc(-c3nnn[nH]3)cc2)Cc2ccccc2F)cc1 [Example 83, 4-cyano-N-(2-fluorobenzyl)-N-[4-(2H-tetrazol-5-yl)benzyl]benzenesulfonamide] | 10 | 0.236 | 1040 |
| CCOc1ccc(S(=O)(=O)N(Cc2ccc(C(=O)NCC(O)c3ccccc3)cc2)Cc2ccccn2)cc1 (stereo not drawn) [Example 84] | 20 | 0.01 | 20 |
| CCOc1ccc(S(=O)(=O)N(Cc2ccc(C(=O)NC3(c4ccccc4)CC3)cc2)Cc2ccccn2)cc1 [Example 88] | 10 | 0.01 | 30 |
| CCOc1ccc(S(=O)(=O)N(Cc2ccc(C(=O)N[C@H]3[C@@H]4CN(C(=O)OC(C)(C)C)C[C@@H]43)cc2)Cc2ccccn2)cc1 [Example 89, rac-6-(4-{[(4-Ethoxy-benzenesulfonyl)-pyridin-2-ylmethyl-amino]-methyl}-benzoylamino)-3-aza-bicyclo[3.1.0]hexane-3-carboxylic acid tert-butyl ester] | 50 | 0.01 | – |
| CCOc1ccc(S(=O)(=O)N(Cc2ccc(C(=O)NC3(c4ccccc4)CC3)cc2)Cc2cccnc2)cc1 [Example 93] | 30 | 0.04 | – |
| CC(C)(C)OC(=O)N1C[C@@H]2[C@H](C1)[C@H]2NC(=O)c1ccc(CN(Cc2ccccn2)S(=O)(=O)c2ccc(C#N)cc2)cc1 [Example 96] | 10 | 0.01 | – |
| N#Cc1ccc(S(=O)(=O)N(Cc2ccc(C(=O)NCCc3cccc(Cl)c3)cc2)Cc2ccccn2)cc1 [Example 97] | 70 | 0.05 | – |
| CC(CNC(=O)c1ccc(CN(Cc2ccccn2)S(=O)(=O)c2ccc(C#N)cc2)cc1)c1ccccc1 (stereo not drawn) [Example 98] | 400 | 0.16 | – |
| N#Cc1ccc(S(=O)(=O)N(Cc2ccc(C(=O)NC3(c4cccc(C#N)c4)CC3)cc2)Cc2ccccn2)cc1 [Example 101] | 60 | 0.19 | – |
| CCOc1ccc(S(=O)(=O)N(Cc2ccc(C(=O)O)cc2)Cc2cccnc2)cc1 [Example 157] | 1620 | 4.18 | – |
| O=C(Cc1cccc(Cl)c1)Nc1ccc(CN(Cc2ccccn2)S(=O)(=O)c2ccc(Cl)cc2)cc1 [Example 160] | 100 | 0.12 | – |
| N#Cc1ccc(S(=O)(=O)N(Cc2ccc(NC(=O)Cc3cccc(Cl)c3)cc2)Cc2ccccn2)cc1 [Example 161] | 20 | 0.06 | – |
